From the supplement of paper PMC10307832

Tests used:
Experiment in all cases: relative viability (nuclei count vs DMSO), 5 days (fraction); higher = more cells survive
[1] = compound: C1/C(=C\C2=CC=CS2)/C(=O)/C(=C/C3=CC=CS3)/C1 + NC(=O)Nc1cc(-c2cccc(F)c2)sc1C(=O)N[C@H]1CCCNC1 [AZD7762] (partner 0.2 µM)
Summary of the method: (§1)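 Lung cancer cell lines were seeded in 1536-well plates and dosed by pin tool the next day, with either a single drug or a fixed anchor-drug dose combined with five library-drug doses (not always all listed) spaced in √10 steps. Five days later, one step fixed the cells and stained their nuclei (final 0.05% Triton X-100, 1% formaldehyde, 1 ug/ml Hoechst), and nuclei were counted on 4× images. Relative viability is the nuclei count in treated wells divided by the count in vehicle wells, and each value is the median of duplicate plates.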

TPCA-1 + Palbociclib = compound: C1=CC(=CC=C1C2=CC(=C(S2)NC(=O)N)C(=O)N)F [TPCA-1] + CC(=O)c1c(C)c2cnc(Nc3ccc(N4CCNCC4)cn3)nc2n(C2CCCC2)c1=O [Palbociclib] (partner 0.5 µM)
Summary of the method: as §1

TPCA-1 + Linsitinib = compound: C1=CC(=CC=C1C2=CC(=C(S2)NC(=O)N)C(=O)N)F [TPCA-1] + C[C@]1(O)C[C@@H](c2nc(-c3ccc4ccc(-c5ccccc5)nc4c3)c3c(N)nccn32)C1 [Linsitinib] (partner 1 µM)
Summary of the method: as §1

[2] = compound: C[C@]12O[C@H](C[C@]1(O)CO)n1c3ccccc3c3c4c(c5c6ccccc6n2c5c31)CNC4=O [Lestaurtinib] + CC(=O)c1c(C)c2cnc(Nc3ccc(N4CCNCC4)cn3)nc2n(C2CCCC2)c1=O [Palbociclib] (partner 0.5 µM)
Summary of the method: as §1

| Cell Line | relative viability ([1]; first compound 0.2 µM) | relative viability ([1]; first compound 0.6325 µM) | relative viability ([1]; first compound 2 µM) | relative viability ([1]; first compound 6.325 µM) | relative viability ([1]; first compound 20 µM) | relative viability (TPCA-1 + Palbociclib; first compound 0.04 µM) | relative viability (TPCA-1 + Palbociclib; first compound 0.1265 µM) | relative viability (TPCA-1 + Palbociclib; first compound 0.4 µM) | relative viability (TPCA-1 + Palbociclib; first compound 1.265 µM) | relative viability (TPCA-1 + Palbociclib; first compound 4 µM) | relative viability (TPCA-1 + Linsitinib; first compound 0.04 µM) | relative viability (TPCA-1 + Linsitinib; first compound 0.1265 µM) | relative viability (TPCA-1 + Linsitinib; first compound 0.4 µM) | relative viability (TPCA-1 + Linsitinib; first compound 1.265 µM) | relative viability (TPCA-1 + Linsitinib; first compound 4 µM) | relative viability ([2]; first compound 0.005 µM) | relative viability ([2]; first compound 0.01581 µM) | relative viability ([2]; first compound 0.05 µM) | relative viability ([2]; first compound 0.1581 µM) | relative viability ([2]; first compound 0.5 µM) |
| --- | --- | --- | --- | --- | --- | --- | --- | --- | --- | --- | --- | --- | --- | --- | --- | --- | --- | --- | --- | --- |
| NCI-H1395 | 0.36 | 0.356 | 0.405 | 0.411 | 0.414 | 0.644 | 0.596 | 0.639 | 0.635 | 0.512 | 1.55 | 0.954 | 1.07 | 0.959 | 0.884 | 0.646 | 0.617 | 0.547 | 0.573 | 0.477 |
| NCI-H1437 | 1.14 | 1.2 | 1.19 | 1.03 | 1.1 | 0.302 | 0.288 | 0.3 | 0.35 | 0.3 | 1.17 | 0.936 | 1.02 | 0.926 | 0.754 | 0.35 | 0.371 | 0.369 | 0.364 | 0.415 |
| NCI-H1651 | 0.474 | 0.511 | 0.486 | 0.505 | 0.45 | 0.54 | 0.493 | 0.51 | 0.535 | 0.505 | 1.13 | 0.891 | 0.985 | 0.947 | 0.974 | 0.536 | 0.594 | 0.551 | 0.569 | 0.497 |
| NCI-H1666 | 0.877 | 0.86 | 0.968 | 0.793 | 0.815 | 0.653 | 0.661 | 0.605 | 0.673 | 0.64 | 0.756 | 0.688 | 0.785 | 0.993 | 0.723 | 0.705 | 0.704 | 0.638 | 0.74 | 0.646 |
| NCI-H1734 | 0.591 | 0.57 | 0.551 | 0.415 | 0.523 | 0.352 | 0.313 | 0.388 | 0.363 | 0.307 | 0.992 | 0.729 | 0.878 | 0.829 | 0.89 | 0.352 | 0.255 | 0.338 | 0.331 | 0.197 |
| NCI-H1755 | 0.551 | 0.421 | 0.436 | 0.426 | 0.335 | 0.457 | 0.454 | 0.459 | 0.431 | 0.399 | 0.978 | 0.941 | 1 | 1 | 0.852 | 0.446 | 0.427 | 0.464 | 0.376 | 0.382 |
| NCI-H1792 | 0.772 | 0.755 | 0.75 | 0.521 | 0.587 | 0.707 | 0.562 | 0.593 | 0.574 | 0.496 | 0.574 | 0.467 | 0.561 | 0.47 | 0.283 | 0.976 | 0.734 | 0.491 | 0.768 | 0.366 |
| NCI-H1793 | 0.488 | 0.482 | 0.596 | 0.328 | 0.199 | 0.358 | 0.301 | 0.303 | 0.355 | 0.213 | 1.05 | 0.674 | 0.934 | 0.683 | 0.727 | 0.333 | 0.36 | 0.324 | 0.335 | 0.26 |
